Tested on: MV-4-11 cells
Assay: Gene expression microarray analysis (Affymetrix PrimeView) and GSEA
Type: cell-based, human
Parameters: RFU PODN (11730768_x_at) / Fold change /veh PODN (11730768_x_at) / RFU LINC00158 (11744669_a_at) / Fold change /veh LINC00158 (11744669_a_at) / RFU DUSP10 (11751237_a_at) / Fold change /veh DUSP10 (11751237_a_at) / RFU ID3 (11757404_x_at) / Fold change /veh ID3 (11757404_x_at) / RFU PLEKHG5 (11737974_s_at) / Fold change /veh PLEKHG5 (11737974_s_at) / RFU LRRC4B (11730491_at) / Fold change /veh LRRC4B (11730491_at) / RFU GIMAP4 (11747438_a_at) / Fold change /veh GIMAP4 (11747438_a_at) / RFU KRT8 (11758183_x_at) / Fold change /veh KRT8 (11758183_x_at) / RFU CNN1 (11734310_a_at) / Fold change /veh CNN1 (11734310_a_at) / RFU VPS37D (11726825_at) / Fold change /veh VPS37D (11726825_at) / RFU C10orf10 (11716522_x_at) / Fold change /veh C10orf10 (11716522_x_at) / RFU KIR2DL2 /// KIR2DL4 /// KIR2DL5A /// KIR2DL5B /// KIR2DS1 /// KIR2DS2 /// KIR2DS3 /// KIR2DS4 /// KIR3DL3 /// KIR3DL3 /// KIR3DS1 (11738374_at) / Fold change /veh KIR2DL2 /// KIR2DL4 /// KIR2DL5A /// KIR2DL5B /// KIR2DS1 /// KIR2DS2 /// KIR2DS3 /// KIR2DS4 /// KIR3DL3 /// KIR3DL3 /// KIR3DS1 (11738374_at) / RFU C1QL1 (11718748_at) / Fold change /veh C1QL1 (11718748_at) / RFU TMPRSS4 (11747572_a_at) / Fold change /veh TMPRSS4 (11747572_a_at) / RFU HAMP (11756126_x_at) / Fold change /veh HAMP (11756126_x_at) / RFU RNFT2 (11725882_a_at) / Fold change /veh RNFT2 (11725882_a_at) / RFU NR4A2 (11747474_a_at) / Fold change /veh NR4A2 (11747474_a_at) / RFU ABCC12 (11746883_a_at) / Fold change /veh ABCC12 (11746883_a_at) / RFU TMEM136 (11760407_x_at) / Fold change /veh TMEM136 (11760407_x_at) / RFU CLDN22 /// WWC2 (11732394_at) / Fold change /veh CLDN22 /// WWC2 (11732394_at) / RFU HLA-DPB1 (11760878_x_at) / Fold change /veh HLA-DPB1 (11760878_x_at) / RFU SPINT1 (11716480_a_at) / Fold change /veh SPINT1 (11716480_a_at) / RFU GAP43 (11754022_s_at) / Fold change /veh GAP43 (11754022_s_at) / RFU A4GNT (11735810_at) / Fold change /veh A4GNT (11735810_at) / RFU PRB3 (11715151_x_at) / Fold change /veh PRB3 (11715151_x_at) / RFU TUBB4B (11761932_at) / Fold change /veh TUBB4B (11761932_at) / RFU CAPN14 (11732068_a_at) / Fold change /veh CAPN14 (11732068_a_at) / RFU TMCC2 (11721928_a_at) / Fold change /veh TMCC2 (11721928_a_at) / RFU IRGQ (11745062_a_at) / Fold change /veh IRGQ (11745062_a_at) / RFU FAM174B (11720279_a_at) / Fold change /veh FAM174B (11720279_a_at) / RFU TMPRSS4 (11748680_a_at) / Fold change /veh TMPRSS4 (11748680_a_at) / RFU FAM212B (11763350_a_at) / Fold change /veh FAM212B (11763350_a_at) / RFU PLEKHG5 (11743358_a_at) / Fold change /veh PLEKHG5 (11743358_a_at) / RFU ZSCAN30 (11745921_a_at) / Fold change /veh ZSCAN30 (11745921_a_at) / RFU CMKLR1 (11741424_a_at) / Fold change /veh CMKLR1 (11741424_a_at) / RFU LOC101060620 /// MAPK8IP1 (11723275_at) / Fold change /veh LOC101060620 /// MAPK8IP1 (11723275_at) / RFU SPTSSB (11747773_x_at) / Fold change /veh SPTSSB (11747773_x_at) / RFU PRSS12 (11739890_at) / Fold change /veh PRSS12 (11739890_at) / RFU BIN1 (11741810_x_at) / Fold change /veh BIN1 (11741810_x_at) / RFU WNT11 (11732464_a_at) / Fold change /veh WNT11 (11732464_a_at) / RFU C10orf10 (11716521_a_at) / Fold change /veh C10orf10 (11716521_a_at) / RFU C5orf56 (11738089_at) / Fold change /veh C5orf56 (11738089_at) / RFU CYB561 (11721691_x_at) / Fold change /veh CYB561 (11721691_x_at) / RFU ANKRD19P (11752326_a_at) / Fold change /veh ANKRD19P (11752326_a_at) / RFU OR2T12 /// OR2T33 /// OR2T8 (11738714_s_at) / Fold change /veh OR2T12 /// OR2T33 /// OR2T8 (11738714_s_at) / RFU VCAN (11748164_a_at) / Fold change /veh VCAN (11748164_a_at) / RFU JSRP1 (11732532_at) / Fold change /veh JSRP1 (11732532_at) / RFU KRTAP10-11 (11738290_x_at) / Fold change /veh KRTAP10-11 (11738290_x_at) / RFU MYO3A (11730013_a_at) / Fold change /veh MYO3A (11730013_a_at) / RFU EBF3 (11725865_a_at) / Fold change /veh EBF3 (11725865_a_at) / RFU CAMK2N1 (11719241_x_at) / Fold change /veh CAMK2N1 (11719241_x_at) / RFU C5orf56 (11738088_a_at) / Fold change /veh C5orf56 (11738088_a_at) / RFU OLFML3 (11715873_a_at) / Fold change /veh OLFML3 (11715873_a_at) / RFU LOC100653217 /// NTM (11731650_a_at) / Fold change /veh LOC100653217 /// NTM (11731650_a_at) / RFU MAPK11 (11762145_a_at) / Fold change /veh MAPK11 (11762145_a_at) / RFU FIZ1 (11724087_x_at) / Fold change /veh FIZ1 (11724087_x_at) / RFU OASL (11726364_x_at) / Fold change /veh OASL (11726364_x_at) / RFU SOX15 (11748057_x_at) / Fold change /veh SOX15 (11748057_x_at) / RFU CD79A (11719716_a_at) / Fold change /veh CD79A (11719716_a_at) / RFU HIST1H1D (11736915_at) / Fold change /veh HIST1H1D (11736915_at) / RFU CASKIN2 (11723855_a_at) / Fold change /veh CASKIN2 (11723855_a_at) / RFU LOC730098 (11760151_x_at) / Fold change /veh LOC730098 (11760151_x_at) / RFU OR4N2 (11742367_at) / Fold change /veh OR4N2 (11742367_at) / RFU PRRT2 (11749266_a_at) / Fold change /veh PRRT2 (11749266_a_at) / RFU SNX32 (11753110_a_at) / Fold change /veh SNX32 (11753110_a_at) / RFU CDHR5 (11726645_a_at) / Fold change /veh CDHR5 (11726645_a_at) / RFU RCAN1 (11760418_a_at) / Fold change /veh RCAN1 (11760418_a_at) / RFU FAM167A (11723789_a_at) / Fold change /veh FAM167A (11723789_a_at) / RFU FAM26E (11764081_at) / Fold change /veh FAM26E (11764081_at) / RFU ISYNA1 (11749810_s_at) / Fold change /veh ISYNA1 (11749810_s_at) / RFU ACY1 (11761880_at) / Fold change /veh ACY1 (11761880_at) / RFU 11764098_at / Fold change /veh 11764098_at / RFU SAMD14 (11745864_x_at) / Fold change /veh SAMD14 (11745864_x_at) / RFU NPB (11741838_a_at) / Fold change /veh NPB (11741838_a_at) / RFU TMPRSS6 (11731388_a_at) / Fold change /veh TMPRSS6 (11731388_a_at) / RFU KRTAP10-2 (11738614_at) / Fold change /veh KRTAP10-2 (11738614_at) / RFU ARHGAP8 /// PRR5-ARHGAP8 (11727945_x_at) / Fold change /veh ARHGAP8 /// PRR5-ARHGAP8 (11727945_x_at) / RFU KRTAP5-7 /// NADSYN1 (11734609_at) / Fold change /veh KRTAP5-7 /// NADSYN1 (11734609_at) / RFU RASL12 (11751679_a_at) / Fold change /veh RASL12 (11751679_a_at) / RFU CDKN2B (11736163_a_at) / Fold change /veh CDKN2B (11736163_a_at) / RFU PRF1 (11729649_at) / Fold change /veh PRF1 (11729649_at) / RFU, ZNF638 /// ZNF638-IT1 / Fold change vs veh, ZNF638 /// ZNF638-IT1 / RFU, PANK3 / Fold change vs veh, PANK3 / RFU, SH3YL1 / Fold change vs veh, SH3YL1 / RFU, ZEB2 / Fold change vs veh, ZEB2 / RFU, NRIP1 / Fold change vs veh, NRIP1 / RFU, PTTG1IP / Fold change vs veh, PTTG1IP / RFU, CAPN2 / Fold change vs veh, CAPN2 / RFU, MED14 / Fold change vs veh, MED14 / RFU, SNORA58 / Fold change vs veh, SNORA58 / RFU, C1orf63 / Fold change vs veh, C1orf63 / RFU, LRRFIP1 / Fold change vs veh, LRRFIP1 / RFU, NDUFAF7 / Fold change vs veh, NDUFAF7 / RFU, SLC12A2 / Fold change vs veh, SLC12A2 / RFU, IBTK / Fold change vs veh, IBTK / RFU, ESF1 / Fold change vs veh, ESF1 / Fold change vs veh, TMEM50B / RFU, TAOK1 / Fold change vs veh, TAOK1 / RFU, ACBD3 / Fold change vs veh, ACBD3 / RFU, TMA16 / Fold change vs veh, TMA16 / RFU, RWDD3 / Fold change vs veh, RWDD3 / RFU, BCAT1 / Fold change vs veh, BCAT1 / RFU, EDEM3 / Fold change vs veh, EDEM3 / RFU, TMEM33 / Fold change vs veh, TMEM33 / RFU, WDR75 / Fold change vs veh, WDR75 / RFU, AHCTF1 / Fold change vs veh, AHCTF1 / RFU, TFRC / Fold change vs veh, TFRC / RFU, ZDHHC17 / Fold change vs veh, ZDHHC17 / RFU, NOM1 / Fold change vs veh, NOM1 / RFU, ARL8B / Fold change vs veh, ARL8B / RFU, ZBTB11 / Fold change vs veh, ZBTB11 / RFU, TAMM41 / Fold change vs veh, TAMM41 / RFU, KIAA1704 /// LOC100996395 / Fold change vs veh, KIAA1704 /// LOC100996395 / RFU, ING1 / Fold change vs veh, ING1 / RFU, TRMT61B / Fold change vs veh, TRMT61B / RFU, FUBP3 / Fold change vs veh, FUBP3 / RFU, TP53 / Fold change vs veh, TP53 / RFU, TNKS2 / Fold change vs veh, TNKS2 / RFU, ZFP14 / Fold change vs veh, ZFP14 / RFU, ACTR2 / Fold change vs veh, ACTR2 / RFU, PPP3R1 / Fold change vs veh, PPP3R1 / RFU, PIK3R1 / Fold change vs veh, PIK3R1 / RFU, HNRNPA1 / Fold change vs veh, HNRNPA1 / RFU, RNF170 / Fold change vs veh, RNF170 / RFU, ZNF28 / Fold change vs veh, ZNF28 / RFU, RNGTT / Fold change vs veh, RNGTT / RFU, OGT / Fold change vs veh, OGT / RFU, BRD1 / Fold change vs veh, BRD1 / RFU, MARS / Fold change vs veh, MARS / RFU, ZNF655 / Fold change vs veh, ZNF655 / RFU, FAHD1 / Fold change vs veh, FAHD1 / RFU, BDP1 / Fold change vs veh, BDP1 / RFU, LRRCC1 / Fold change vs veh, LRRCC1 / RFU, ARID1A / Fold change vs veh, ARID1A / RFU, ZNF146 / Fold change vs veh, ZNF146 / RFU, ZNF330 / Fold change vs veh, ZNF330 / RFU, GPN3 / Fold change vs veh, GPN3 / RFU, C9orf123 / Fold change vs veh, C9orf123 / RFU, N4BP2L2 / Fold change vs veh, N4BP2L2 / RFU, ARFIP1 / Fold change vs veh, ARFIP1 / RFU, FAM179B / Fold change vs veh, FAM179B / RFU, BCL10 / Fold change vs veh, BCL10 / RFU, UHRF1BP1L / Fold change vs veh, UHRF1BP1L / RFU, BET1 / Fold change vs veh, BET1 / RFU, CNOT2 / Fold change vs veh, CNOT2 / RFU, ZNF268 / Fold change vs veh, ZNF268 / Fold change vs veh, ZNF507 / RFU, DGCR2 / Fold change vs veh, DGCR2 / RFU, WDSUB1 / Fold change vs veh, WDSUB1 / Fold change vs veh, HSP90B1 /// MIR3652 / RFU, ADSS / Fold change vs veh, ADSS / RFU, GK / Fold change vs veh, GK / RFU, ZNF148 / Fold change vs veh, ZNF148 / RFU, TAF9 / Fold change vs veh, TAF9 / RFU, SLC1A5 / Fold change vs veh, SLC1A5 / RFU, SLMO2 / Fold change vs veh, SLMO2 / RFU, ABCC4 / Fold change vs veh, ABCC4 / RFU, LOC101060439 /// RAP1B / Fold change vs veh, LOC101060439 /// RAP1B / RFU, RFX7 / Fold change vs veh, RFX7 / RFU, GTPBP10 / Fold change vs veh, GTPBP10 / RFU, CNEP1R1 / Fold change vs veh, CNEP1R1 / RFU, BIVM-ERCC5 /// ERCC5 / Fold change vs veh, BIVM-ERCC5 /// ERCC5 / RFU, ILF3 / Fold change vs veh, ILF3 / RFU 11762660_at / Fold change /veh 11762660_at / RFU VCAN (11757783_s_at) / Fold change /veh VCAN (11757783_s_at) / RFU DDX43 (11728927_at) / Fold change /veh DDX43 (11728927_at) / RFU KRT8 (11758188_x_at) / Fold change /veh KRT8 (11758188_x_at) / RFU NKD1 (11759106_at) / Fold change /veh NKD1 (11759106_at) / RFU SRD5A1 (11742802_a_at) / Fold change /veh SRD5A1 (11742802_a_at) / RFU TPSAB1 /// TPSB2 (11721975_s_at) / Fold change /veh TPSAB1 /// TPSB2 (11721975_s_at) / RFU GSTM3 (11746129_a_at) / Fold change /veh GSTM3 (11746129_a_at) / RFU IL23R (11737362_x_at) / Fold change /veh IL23R (11737362_x_at) / RFU TMEM51 (11727254_a_at) / Fold change /veh TMEM51 (11727254_a_at) / RFU PIWIL2 (11732686_x_at) / Fold change /veh PIWIL2 (11732686_x_at) / RFU ORM1 (11744905_x_at) / Fold change /veh ORM1 (11744905_x_at) / RFU CCDC152 (11743942_at) / Fold change /veh CCDC152 (11743942_at) / RFU ECM1 (11717891_a_at) / Fold change /veh ECM1 (11717891_a_at) / RFU IL23R (11748794_a_at) / Fold change /veh IL23R (11748794_a_at) / RFU TNFAIP8L3 (11732012_x_at) / Fold change /veh TNFAIP8L3 (11732012_x_at) / RFU MBOAT4 (11741988_at) / Fold change /veh MBOAT4 (11741988_at) / RFU 11764193_at / Fold change /veh 11764193_at / RFU TMEM53 (11763286_at) / Fold change /veh TMEM53 (11763286_at) / RFU MAGEB2 (11727129_at) / Fold change /veh MAGEB2 (11727129_at) / RFU TMEM200A (11744735_a_at) / Fold change /veh TMEM200A (11744735_a_at) / RFU CCDC152 (11751479_a_at) / Fold change /veh CCDC152 (11751479_a_at) / RFU FAM211A (11726209_a_at) / Fold change /veh FAM211A (11726209_a_at) / RFU RGS16 (11746705_a_at) / Fold change /veh RGS16 (11746705_a_at) / RFU VCAN (11755009_s_at) / Fold change /veh VCAN (11755009_s_at) / RFU RHOB (11743442_s_at) / Fold change /veh RHOB (11743442_s_at) / RFU RGS16 (11720943_a_at) / Fold change /veh RGS16 (11720943_a_at) / RFU RGS16 (11720944_at) / Fold change /veh RGS16 (11720944_at) / RFU, VPS4B / Fold change vs veh, VPS4B / RFU, CREB1 / Fold change vs veh, CREB1 / RFU, DNAJC13 / Fold change vs veh, DNAJC13 / RFU, GNAQ / Fold change vs veh, GNAQ / RFU, CDK5R1 / Fold change vs veh, CDK5R1 / RFU, ZRANB3 / Fold change vs veh, ZRANB3 / RFU, CUL4A / Fold change vs veh, CUL4A / RFU, CCNY / Fold change vs veh, CCNY / RFU, UFL1 / Fold change vs veh, UFL1 / RFU, COG3 / Fold change vs veh, COG3 / RFU, DIAPH2 / Fold change vs veh, DIAPH2 / RFU, SKA2 / Fold change vs veh, SKA2 / RFU, AFF3 / Fold change vs veh, AFF3 / RFU, LMF1 / Fold change vs veh, LMF1 / RFU, IPO11 / Fold change vs veh, IPO11 / RFU, DFFB / Fold change vs veh, DFFB / RFU, FOXP1 / Fold change vs veh, FOXP1 / RFU, CARD8 / Fold change vs veh, CARD8 / RFU, STRN3 / Fold change vs veh, STRN3 / RFU, ADK / Fold change vs veh, ADK / RFU, RASSF2 / Fold change vs veh, RASSF2 / RFU, WIPF1 / Fold change vs veh, WIPF1 / RFU, LARP1B / Fold change vs veh, LARP1B / RFU, RASA1 / Fold change vs veh, RASA1 / RFU, RB1 / Fold change vs veh, RB1 / RFU, PPFIA1 / Fold change vs veh, PPFIA1 / RFU, MAT2A / Fold change vs veh, MAT2A / RFU, CCT5 / Fold change vs veh, CCT5 / RFU, WDR92 / Fold change vs veh, WDR92 / RFU, CUX1 / Fold change vs veh, CUX1 / RFU, TTC7A / Fold change vs veh, TTC7A / RFU, TMEM135 / Fold change vs veh, TMEM135 / RFU, DEPTOR / Fold change vs veh, DEPTOR / RFU, CPM / Fold change vs veh, CPM / RFU, DNAJB6 / Fold change vs veh, DNAJB6 / RFU, CACNA2D3 / Fold change vs veh, CACNA2D3 / RFU, DTX4 / Fold change vs veh, DTX4 / RFU, TFCP2 / Fold change vs veh, TFCP2 / RFU, GMCL1 /// GMCL1P1 / Fold change vs veh, GMCL1 /// GMCL1P1 / RFU, AEBP2 / Fold change vs veh, AEBP2 / RFU, SNHG1 /// SNORD22 /// SNORD25 /// SNORD26 /// SNORD27 /// SNORD28 /// SNORD29 /// SNORD31 / Fold change vs veh, SNHG1 /// SNORD22 /// SNORD25 /// SNORD26 /// SNORD27 /// SNORD28 /// SNORD29 /// SNORD31 / Fold change (Aza/veh), C12orf56 (ProbeSet 11735607_a_at) / Fold change (ACY-1035/veh), C12orf56 (ProbeSet 11735607_a_at) / Fold change (Aza/veh), FGFR1OP (ProbeSet 11751329_s_at) / Fold change (ACY-1035/veh), FGFR1OP (ProbeSet 11751329_s_at) / Fold change (Aza/veh), VPS36 (ProbeSet 11739960_a_at) / Fold change (ACY-1035/veh), VPS36 (ProbeSet 11739960_a_at) / RFU SYPL1 (11715823_x_at) / Fold change /veh SYPL1 (11715823_x_at) / RFU IGFBP7 (11715501_s_at) / Fold change /veh IGFBP7 (11715501_s_at) / RFU REEP3 (11722064_at) / Fold change /veh REEP3 (11722064_at) / RFU IGLL1 (11728026_x_at) / Fold change /veh IGLL1 (11728026_x_at): dose or concentration left out as unconfirmed
Conditions: ProbeSet 11720269_a_at; LIST B

Q: With Nc1ncn([C@@H]2O[C@H](CO)[C@@H](O)[C@H]2O)c(=O)n1 [azacitidine] as the compound, how does the “RFU, IBTK” value read?
A: 763.53 RFU

— PMC5218480 (PLoS ONE, 2017)
